Earlier results on one compound are cited in publication PMC13095657, “A two-step mechanism for sugar translocation” (Nature Structural & Molecular Biology, 2026).

This data set addresses T1, XylE (Escherichia coli, UniProt P0AGF4).
T1 construct: made in house; host or cells: E. coli BL21-Gold (DE3)
Conditions: XylE WT in liposomes; ref https://www.jbc.org/action/showPdf?pii=S0021-9258%2821%2901315-6; read-out: KM by SSM.

T1 sequence (P0AGF4 whole entry): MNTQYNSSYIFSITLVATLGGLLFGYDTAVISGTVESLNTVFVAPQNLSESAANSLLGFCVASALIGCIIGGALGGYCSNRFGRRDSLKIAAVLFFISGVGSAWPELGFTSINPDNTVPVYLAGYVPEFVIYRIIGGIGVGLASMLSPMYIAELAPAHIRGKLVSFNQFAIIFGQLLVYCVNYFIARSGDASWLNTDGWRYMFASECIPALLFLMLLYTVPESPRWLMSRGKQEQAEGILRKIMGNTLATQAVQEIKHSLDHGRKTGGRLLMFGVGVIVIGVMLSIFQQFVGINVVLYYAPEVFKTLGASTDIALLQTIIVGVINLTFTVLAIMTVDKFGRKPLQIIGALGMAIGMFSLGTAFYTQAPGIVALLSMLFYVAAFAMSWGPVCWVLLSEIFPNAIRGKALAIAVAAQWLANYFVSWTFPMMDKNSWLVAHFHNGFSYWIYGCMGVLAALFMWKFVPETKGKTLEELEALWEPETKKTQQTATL

As a reminder, the Km is the concentration of substrate that gives half-maximal velocity. Turning to `OC1OC[C@@H](O)[C@H](O)[C@H]1O` (stereo partly drawn) [D-xylose], the Km was 1700 µM.
